Legend:
[1] = system: barnyardgrass; experiment: Test A pre-/postemergence greenhouse test; format: in vivo, Echinochloa crus-galli; conditions: for Plant response rating, Barnyardgrass: 0 to 100 scale where 0 is no effect and 100 is complete control; for Barnyardgrass plant response rating: 0 to 100 scale
Outline: (§1)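 Visual injury ratings, made relative to untreated controls roughly ten days after treatment, cover both preemergence and postemergence application. Compounds in a surfactant-containing non-phytotoxic solvent were sprayed onto the soil surface after sowing and, simultaneously, onto young plants at the one- to two-leaf stage.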

[2] = system: morningglory; experiment: Test A pre-/postemergence greenhouse test; format: in vivo, Ipomoea spp.; conditions: for Plant response rating, Morningglory: 0 to 100 scale where 0 is no effect and 100 is complete control; for Morningglory plant response rating: 0 to 100 scale
Outline: as §1

[3] = system: barnyardgrass; experiment: Test C flooded paddy test; format: in vivo, Echinochloa crus-galli; conditions: Flood
Outline: (§2)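 Ratings were visual and made relative to untreated controls after 13 to 15 greenhouse days.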

[4] = system: wheat; experiment: Test A pre-/postemergence greenhouse test; format: in vivo, Triticum aestivum; conditions: for Plant response rating, Wheat: 0 to 100 scale where 0 is no effect and 100 is complete control; for Wheat plant response rating: 0 to 100 scale
Outline: as §1

[5] = system: umbrella sedge; experiment: Test C flooded paddy test; format: in vivo, Cyperus difformis; conditions: Flood
Outline: as §2

[6] = system: velvetleaf; experiment: Test A pre-/postemergence greenhouse test; format: in vivo, Abutilon theophrasti; conditions: for Plant response rating, Velvetleaf: 0 to 100 scale where 0 is no effect and 100 is complete control; for Velvetleaf plant response rating: 0 to 100 scale
Outline: as §1

[7] = system: corn; experiment: Test A pre-/postemergence greenhouse test; format: in vivo, Zea mays; conditions: for Plant response rating, Corn: 0 to 100 scale where 0 is no effect and 100 is complete control; for Corn plant response rating: 0 to 100 scale
Outline: as §1

[8] = system: giant foxtail; experiment: Test A pre-/postemergence greenhouse test; format: in vivo, Setaria faberi; conditions: for Plant response rating, Foxtail, Giant: 0 to 100 scale where 0 is no effect and 100 is complete control; for Foxtail, Giant plant response rating: 0 to 100 scale
Outline: as §1

[9] = system: redroot pigweed; experiment: Test A pre-/postemergence greenhouse test; format: in vivo, Amaranthus retroflexus; conditions: for Plant response rating, Pigweed: 0 to 100 scale where 0 is no effect and 100 is complete control; for Pigweed plant response rating: 0 to 100 scale
Outline: as §1

[10] = system: duck salad; experiment: Test C flooded paddy test; format: in vivo, Heteranthera limosa; conditions: Flood
Outline: as §2

[11] = system: rice; experiment: Test C flooded paddy test; format: in vivo, Oryza sativa; conditions: Flood
Outline: as §2

[12] = system: crabgrass; experiment: Test A pre-/postemergence greenhouse test; format: in vivo, Digitaria sanguinalis; conditions: for Plant response rating, Crabgrass, Large: 0 to 100 scale where 0 is no effect and 100 is complete control; for Crabgrass, Large plant response rating: 0 to 100 scale
Outline: as §1

[13] = Postemergence, 500 g ai/ha, 0 is no effect, 100 is complete control
[14] = Preemergence, 125 g ai/ha, 0 no effect, 100 complete control
[15] = 62 g ai/ha, scale 0 to 100 (0 no effect, 100 complete control)
[16] = 250 g ai/ha, scale 0 to 100, 0 no effect, 100 complete control, 13 to 15 days
[17] = Postemergence, 125 g ai/ha, 0 is no effect, 100 is complete control
[18] = 31 g ai/ha, scale 0 to 100 (0 no effect, 100 complete control)
[19] = 62 g ai/ha, scale 0 to 100, 0 no effect, 100 complete control, 13 to 15 days
[20] = 125 g ai/ha, scale 0 to 100, 0 no effect, 100 complete control, 13 to 15 days
[21] = 250 g ai/ha, scale 0 to 100 (0 no effect, 100 complete control)
[22] = Preemergence, 500 g ai/ha, 0 no effect, 100 complete control

Cn1nc(C(F)(F)F)c(C[S+]([O-])c2cc(Cl)cc[n+]2[O-])c1OCC(F)(F)F (centres unmarked) [Compound 68]
Plant response rating, Barnyardgrass ([1]; Postemergence, 125 g ai/ha): 50
Barnyardgrass plant response rating [1, 13]: 80
Barnyardgrass plant response rating [1, 14]: 30
Plant response rating, Barnyardgrass ([1]; Preemergence, 500 g ai/ha): 100
Plant response rating, Morningglory ([2]; Postemergence, 125 g ai/ha): 10
Morningglory plant response rating [2, 13]: 70
Morningglory plant response rating [2, 14]: 30
Plant response rating, Morningglory ([2]; Preemergence, 500 g ai/ha): 80
Plant response rating, Barnyardgrass [3, 15]: 0
Plant response rating, Barnyardgrass [3, 16]: 20
Plant response rating, Wheat ([4]; Postemergence, 125 g ai/ha): 50
Wheat plant response rating [4, 13]: 60
Wheat plant response rating [4, 14]: 30
Plant response rating, Wheat ([4]; Preemergence, 500 g ai/ha): 70
Plant response rating, Sedge, Umbrella [5, 15]: 100
Plant response rating, Sedge, Umbrella [5, 16]: 100
Plant response rating, Velvetleaf ([6]; Postemergence, 125 g ai/ha): 50
Velvetleaf plant response rating [6, 13]: 60
Velvetleaf plant response rating [6, 14]: 0
Plant response rating, Velvetleaf ([6]; Preemergence, 500 g ai/ha): 60
Plant response rating, Corn ([7]; Postemergence, 125 g ai/ha): 30
Corn plant response rating [7, 13]: 70
Corn plant response rating [7, 14]: 0
Plant response rating, Corn ([7]; Preemergence, 500 g ai/ha): 70
Plant response rating, Foxtail, Giant ([8]; Postemergence, 125 g ai/ha): 70
Foxtail, Giant plant response rating [8, 13]: 90
Foxtail, Giant plant response rating [8, 14]: 70
Plant response rating, Foxtail, Giant ([8]; Preemergence, 500 g ai/ha): 100
Plant response rating, Pigweed ([9]; Postemergence, 125 g ai/ha): 40
Pigweed plant response rating [9, 13]: 80
Pigweed plant response rating [9, 14]: 40
Plant response rating, Pigweed ([9]; Preemergence, 500 g ai/ha): 100
Plant response rating, Ducksalad [10, 15]: 85
Plant response rating, Ducksalad [10, 16]: 90
Plant response rating, Rice [11, 15]: 0
Plant response rating, Rice [11, 16]: 80
Plant response rating, Crabgrass, Large ([12]; Postemergence, 125 g ai/ha): 50
Crabgrass, Large plant response rating [12, 13]: 90
Crabgrass, Large plant response rating [12, 14]: 40
Plant response rating, Crabgrass, Large ([12]; Preemergence, 500 g ai/ha): 100

Cn1nc(C(F)(F)F)c(CS(=O)(=O)c2ccc(Br)c[n+]2[O-])c1OC(F)F [Compound 13]
Barnyardgrass plant response rating [1, 17]: 0
Barnyardgrass plant response rating [1, 13]: 0
Barnyardgrass plant response rating [1, 14]: 50
Plant response rating, Barnyardgrass ([1]; Preemergence, 500 g ai/ha): 90
Morningglory plant response rating [2, 17]: 0
Morningglory plant response rating [2, 13]: 0
Morningglory plant response rating [2, 14]: 0
Plant response rating, Morningglory ([2]; Preemergence, 500 g ai/ha): 0
Plant response rating, Barnyardgrass [3, 18]: 0
Plant response rating, Barnyardgrass [3, 19]: 0
Plant response rating, Barnyardgrass [3, 20]: 20
Plant response rating, Barnyardgrass [3, 21]: 80
Wheat plant response rating [4, 17]: 0
Wheat plant response rating [4, 13]: 0
Wheat plant response rating [4, 14]: 0
Plant response rating, Wheat ([4]; Preemergence, 500 g ai/ha): 0
Plant response rating, Sedge, Umbrella [5, 18]: 0
Plant response rating, Sedge, Umbrella [5, 19]: 0
Plant response rating, Sedge, Umbrella [5, 20]: 20
Plant response rating, Sedge, Umbrella [5, 21]: 100
Velvetleaf plant response rating [6, 17]: 0
Velvetleaf plant response rating [6, 13]: 0
Velvetleaf plant response rating [6, 14]: 0
Plant response rating, Velvetleaf ([6]; Preemergence, 500 g ai/ha): 0
Corn plant response rating [7, 17]: 0
Corn plant response rating [7, 13]: 0
Corn plant response rating [7, 14]: 0
Plant response rating, Corn ([7]; Preemergence, 500 g ai/ha): 0
Foxtail, Giant plant response rating [8, 17]: 0
Foxtail, Giant plant response rating [8, 13]: 10
Foxtail, Giant plant response rating [8, 14]: 50
Plant response rating, Foxtail, Giant ([8]; Preemergence, 500 g ai/ha): 70
Pigweed plant response rating [9, 17]: 0
Pigweed plant response rating [9, 13]: 0
Plant response rating, Ducksalad [10, 18]: 0
Plant response rating, Ducksalad [10, 19]: 0
Plant response rating, Ducksalad [10, 20]: 0
Plant response rating, Ducksalad [10, 21]: 95
Plant response rating, Rice [11, 18]: 0
Plant response rating, Rice [11, 19]: 50
Plant response rating, Rice [11, 20]: 65
Plant response rating, Rice [11, 21]: 85
Crabgrass, Large plant response rating [12, 17]: 0
Crabgrass, Large plant response rating [12, 13]: 30
Crabgrass, Large plant response rating [12, 14]: 40
Plant response rating, Crabgrass, Large ([12]; Preemergence, 500 g ai/ha): 80

Cn1nc(C(F)(F)F)c(CS(=O)(=O)c2ccc(F)c[n+]2[O-])c1OCC(F)(F)F [Compound 106]
Plant response rating, Barnyardgrass ([1]; Postemergence, 125 g ai/ha): 40
Barnyardgrass plant response rating [1, 13]: 70
Barnyardgrass plant response rating [1, 14]: 40
Barnyardgrass plant response rating [1, 22]: 90
Plant response rating, Morningglory ([2]; Postemergence, 125 g ai/ha): 0
Morningglory plant response rating [2, 13]: 30
Morningglory plant response rating [2, 14]: 10
Morningglory plant response rating [2, 22]: 50
Plant response rating, Barnyardgrass [3, 18]: 0
Plant response rating, Barnyardgrass [3, 15]: 0
Plant response rating, Barnyardgrass [3, 20]: 15
Plant response rating, Barnyardgrass [3, 16]: 20
Plant response rating, Wheat ([4]; Postemergence, 125 g ai/ha): 0
Wheat plant response rating [4, 13]: 0
Wheat plant response rating [4, 14]: 0
Wheat plant response rating [4, 22]: 0
Plant response rating, Sedge, Umbrella [5, 18]: 0
Plant response rating, Sedge, Umbrella [5, 15]: 0
Plant response rating, Sedge, Umbrella [5, 20]: 0
Plant response rating, Sedge, Umbrella [5, 16]: 30
Plant response rating, Velvetleaf ([6]; Postemergence, 125 g ai/ha): 0
Velvetleaf plant response rating [6, 13]: 20
Velvetleaf plant response rating [6, 14]: 0
Velvetleaf plant response rating [6, 22]: 60
Plant response rating, Corn ([7]; Postemergence, 125 g ai/ha): 0
Corn plant response rating [7, 13]: 0
Corn plant response rating [7, 14]: 0
Corn plant response rating [7, 22]: 0
Plant response rating, Foxtail, Giant ([8]; Postemergence, 125 g ai/ha): 50
Foxtail, Giant plant response rating [8, 13]: 80
Foxtail, Giant plant response rating [8, 14]: 40
Foxtail, Giant plant response rating [8, 22]: 80
Plant response rating, Pigweed ([9]; Postemergence, 125 g ai/ha): 0
Pigweed plant response rating [9, 13]: 50
Pigweed plant response rating [9, 14]: 70
Pigweed plant response rating [9, 22]: 80
Plant response rating, Ducksalad [10, 18]: 0
Plant response rating, Ducksalad [10, 15]: 50
Plant response rating, Ducksalad [10, 20]: 60
Plant response rating, Ducksalad [10, 16]: 80
Plant response rating, Rice [11, 18]: 0
Plant response rating, Rice [11, 15]: 0
Plant response rating, Rice [11, 20]: 20
Plant response rating, Rice [11, 16]: 25
Plant response rating, Crabgrass, Large ([12]; Postemergence, 125 g ai/ha): 30
Crabgrass, Large plant response rating [12, 13]: 80
Crabgrass, Large plant response rating [12, 14]: 60
Crabgrass, Large plant response rating [12, 22]: 80
